The source of these data is patent US11541093B2, “Pharmacological use of Cimicifuga extract” (Max Zeller Soehne AG, priority 2012, dated 2023).

In one assay the test system is diabetic rats. As to conditions: intravenously at 5 and 10 mg/kg; cited from earlier work.
In assay [1] the test system is male ob/ob mice. The assay is described as follows: Body weight in male ob/ob mice. Type of assay: in vivo. An excerpt: (§1) The effects of oral 7-day administration of a Cimicifuga racemosa extract prepared according to example 1 and designated Ze 450 on body weight, daily food and water intake as well as glucose control were investigated in male ob/ob mice as follows. The ob/ob mouse is a well-characterized and representative in-vivo model of obesity and diabetes in mammals, in particular humans, wherein both disorders are the result of a mutation in the ob gene which encodes leptin. In the study metformin was the positive control.
(§2) Body weight, food and water intake were measured daily from 6 days before dosing to 6 days after dosing started. Animals were fasted overnight on Day 6 for an oral glucose tolerance test (OGTT) on Day 7. The animals also had freely fed bleeds on Day −4 and Day 6. […]
(§3) All treatments were dosed orally by gavage […] once daily. During the treatment period food intake, water intake and body weight were recorded daily at the dosing session. After dosing the animals were examined and any overt behavior was recorded. […]
(§4) Body weights, food intake and water intake were expressed as mean values ±SEM. Body weight, body weight gain, daily and average food and water intake data and cumulative food intake were analyzed by ANCOVA with baseline as a covariate, followed by appropriate comparisons (two-tailed) to determine significant differences from the appropriate control group. […]

In assay [2] the test system is male ob/ob mice. The assay is described as follows: Daily water intake in male ob/ob mice. It is filed as in vivo. The settings on record: metformin PO; p=0.002.
Source text: as §1, §2, §3, §4

As for `COc1ccc(/C=C/C(=O)O)cc1O` [isoferulic acid], the plasma glucose levels result in the assay with diabetic rats is on record as “will lower plasma glucose levels”.
As to `CN(C)C(=N)N=C(N)N` [metformin], the “effect on overall body weight” value with male ob/ob mice [1] (metformin 200 mg/kg PO, after 6 days of treatment) is “no significant effect”. Moreover, the “cumulative body weight over the 6 treatment days” value with male ob/ob mice [1] (metformin PO, compared to its control group) is “virtually no reduction”. In the assay on male ob/ob mice [2], the “average weekly water intake” value was “significant (p=0.002) reduction”.
